Legend:
BEND3 cells = assay: BBB transport across BEND3 cell barrier in Ussing chamber; assay type: in vitro ADME, mouse; conditions: 1, 2, 3 and 4 hours
Source text: To generate a cellular model of the BBB, BEND3 cells were obtained from American Type Culture Collection (ATCC: 2299). BEND3 cells are endothelial cells that form tight barriers through the formation of transcellular tight junctions (Montesano et al. 1990; Sikorski et al. 1993; Williams et al. 1988), and these barriers mimic the barrier properties of the BBB (He et al. 2010; Watanabe et al. 2013). Their endothelial nature has been confirmed by the expression of von Willebrand factor and the uptake of fluorescently labeled low density lipoprotein. BEND3 cells were cultured in Dulbecco's Modified Eagle Medium (DMEM) supplemented with 15% FBS and 1% (100 U/ml Penicillin and 100 μg/ml Streptomycin). […]
To study the transport of nanoparticle formulations across the BEND3 BBB model barrier, a complete Ussing chamber system with a multichannel voltage-current clamp and the EasyMount Ussing chambers (Model VCC MC8; P2300; Physiologic Instruments Inc.; San Diego, Calif.) was used. […] To subtract the background resistance, a blank cell-culture insert was placed onto the slider and used to compensate for any fluid or blank membrane resistance by dialing off any reading to zero. […] Before the start of the experiment, all cell barrier preparations were evaluated for resistance properties and current flow using the acquire and analyze software. […]

[1] = tested on: macrophage (RAW 246.7) cell line; assay: Cytotoxicity by MTT assay; assay type: cell-based; conditions: relative to negative control
Source text: (See Examples 10 through 16 hereinbelow). As confirmed in past research, the nanoparticle formulations have shown to be both safe and non-toxic in non-human primates. In primates, all parameters related to liver toxicity (such as SGOT, SGPT) and kidney toxicity (such as serum creatinine, […]) were normal after repeated nanoparticulate administrations when compared to the control group. […] For confirmation of a potential innate inflammatory response, nitric oxide assays are an important tool. For the assay, dendritic cells are plated in a well plate and exposed to the formulation. After 16 hours, using reagents, a stronger color change indicates a higher production of nitric oxide by these antigen-presenting cells in response to the formulation's antigenicity. […] This indicates minimal if not negligible immunogenicity of the formulation. […] Likewise, cytotoxicity of blank nanoparticles was assessed by MTT (3-(4,5-Dimethylthiazol-2-yl)-2,5-diphenyltetrazolium bromide) assay in a macrophage (RAW 246.7) cell line.
The cytotoxicity of blank and peptide loaded nanoparticles was assessed by the MTT (3-(4,5-Dimethylthiazol-2-yl)-2,5-diphenyltetrazolium bromide) assay. […] Absorbance in each well was measured at 570 nm in a microtiter plate reader. The formation of a colored product quantified by measuring absorbance can be correlated to the percentage of living cells.

[2] = in vivo; cited from earlier work
[3] = OT in CSF and plasma by ELISA after intranasal administration; assay type: in vivo, Swiss-Webster mice; conditions: 2 hours after intranasal administration, 50 ug OT
Experimental: On sample collection days, animals were administered a 50 μl solution of OT alone or encapsulated in nanoparticles (containing 50 ug of OT) intranasally and placed in separate cages for 120 minutes.
CSF samples were collected from the cisterna magna as previously published by (Liu and Duff 2008) with little modifications. Briefly, the mice were anaesthetized with isoflurane and maintained under anesthesia at a flow rate of 1.5 ml/min during the surgical process. The mice were then placed prone in the stereotaxic instrument in direct contact with a heating pad with their heads firmly secured. The skin on the head and neck was shaved and the surgical site wiped with 10% povidone iodine followed by 70% ethanol. An incision was made and the muscles under the skin separated by blunt dissection under a dissecting microscope until the dura of the cisterna magna were exposed (a glistening white reverse triangle). The mice were then repositioned so the head formed a near 135° angle to the body. […]
All collected CSF and Plasma samples were treated identically and assayed at the same time with the same batch of reagents. […] The optical density was read immediately at 405 nm with correction at 570 nm using BioTek HT synergy spectrophotometer at 540 nm (Model S1AFR BioTek; Winooski, Vt.). The mean optical density of the blank wells was subtracted from all readings.

[4] = within one hour of intranasal delivery (Leng and Ludwig 2016); cited from earlier work

Molecule: Cc1cc(-c2ccc(/N=N/c3c(S(=O)(=O)O)cc4cc(S(=O)(=O)O)cc(N)c4c3O)c(C)c2)ccc1/N=N/c1c(S(=O)(=O)O)cc2cc(S(=O)(=O)O)cc(N)c2c1O [trypan blue]
- transport across the barrier, presence versus absence of the cell barrier (BEND3 cells): significant reduction

Molecule: benzalkonium chloride
- cell viability ([1]; after 24 hours): 21.44%
- cell viability ([1]; after 48 hours): 20.089%

Molecule: CC[C@H](C)[C@@H]1NC(=O)[C@H](Cc2ccc(O)cc2)NC(=O)[C@@H](N)CSSC[C@@H](C(=O)N2CCC[C@H]2C(=O)N[C@@H](CC(C)C)C(=O)NCC(N)=O)NC(=O)[C@H](CC(N)=O)NC(=O)[C@H](CCC(N)=O)NC1=O [OT, oxytocin]
- half-life in the blood [2]: on the order of minutes
- proportion of OT in CSF versus the total in CSF plus plasma [3]: 4.2%
- calculated maximum transfer of a dose to the brain [4]: 0.005%

— patent publication US20200016088A1, “NANOFORMULATIONS OF NEUROPEPTIDES AND METHOD OF MAKING SAME” (THE CORPORATION OF MERCER UNIVERSITY, priority 2018, published 2020)
